Measured values published in ChEMBL document CHEMBL4304811, “Development of a Water-Soluble Indolylmaleimide Derivative IM-93 Showing Dual Inhibition of Ferroptosis and NETosis” (ACS Med Chem Lett, 2019).

Columns and labels:
[1] = molecular target: Dual specificity protein kinase CLK2 (Homo sapiens) (UniProt P49760); assay: Binding affinity to wild-type human partial length CLK2 (D144 to R498 residues) expressed in bacterial expression system assessed as residual binding level at 10 uM by Kinomescan method relative to control
[2] = molecular target: Dual specificity tyrosine-phosphorylation-regulated kinase 1A (Homo sapiens) (UniProt Q13627); assay: Binding affinity to wild-type human partial length DYRK1A (H129 to S509 residues) expressed in mammalian expression system assessed as residual binding level at 10 uM by Kinomescan method relative to control
[3] = molecular target: MAP kinase-activated protein kinase 2 (Homo sapiens) (UniProt P49137); assay: Binding affinity to wild-type human partial length MAPKAPK2 (V48 to D345 residues) expressed in bacterial expression system assessed as residual binding level at 10 uM by Kinomescan method relative to control
[4] = molecular target: Serine/threonine-protein kinase DCLK3 (Homo sapiens) (UniProt Q9C098); assay: Binding affinity to wild-type human partial length DCAMKL3 (E140 to V628 residues) expressed in bacterial expression system assessed as residual binding level at 10 uM by Kinomescan method relative to control
Sequence of Serine/threonine-protein kinase DCLK3 (Homo sapiens) (Q9C098 whole entry, the tested form may be a part): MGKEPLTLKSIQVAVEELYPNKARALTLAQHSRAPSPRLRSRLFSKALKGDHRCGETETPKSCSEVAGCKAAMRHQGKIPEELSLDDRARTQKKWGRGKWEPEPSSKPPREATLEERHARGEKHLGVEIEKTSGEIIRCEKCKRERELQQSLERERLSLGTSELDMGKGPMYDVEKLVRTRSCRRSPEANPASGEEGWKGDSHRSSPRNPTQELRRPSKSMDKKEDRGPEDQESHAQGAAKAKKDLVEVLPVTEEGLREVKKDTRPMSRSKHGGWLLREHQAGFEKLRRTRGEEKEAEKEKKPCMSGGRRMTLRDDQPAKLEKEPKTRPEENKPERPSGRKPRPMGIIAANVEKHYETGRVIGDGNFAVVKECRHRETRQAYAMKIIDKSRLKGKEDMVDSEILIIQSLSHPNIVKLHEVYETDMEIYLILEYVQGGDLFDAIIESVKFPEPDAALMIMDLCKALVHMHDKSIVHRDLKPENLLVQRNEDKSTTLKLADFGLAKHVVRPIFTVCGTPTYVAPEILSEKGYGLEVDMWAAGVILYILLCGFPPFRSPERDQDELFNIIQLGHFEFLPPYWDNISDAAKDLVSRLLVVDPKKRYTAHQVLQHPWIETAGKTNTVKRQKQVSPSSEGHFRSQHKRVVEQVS

[5] = molecular target: Ribosomal protein S6 kinase alpha-3 (Homo sapiens) (UniProt P51812); assay: Binding affinity to wild-type human partial length N- terminal RSK2 kinase domain 1 (M1 to D394 residues) expressed in mammalian expression system assessed as residual binding level at 10 uM by Kinomescan method relative to control
Sequence of Ribosomal protein S6 kinase alpha-3 (Homo sapiens) (P51812 whole entry, the tested form may be a part): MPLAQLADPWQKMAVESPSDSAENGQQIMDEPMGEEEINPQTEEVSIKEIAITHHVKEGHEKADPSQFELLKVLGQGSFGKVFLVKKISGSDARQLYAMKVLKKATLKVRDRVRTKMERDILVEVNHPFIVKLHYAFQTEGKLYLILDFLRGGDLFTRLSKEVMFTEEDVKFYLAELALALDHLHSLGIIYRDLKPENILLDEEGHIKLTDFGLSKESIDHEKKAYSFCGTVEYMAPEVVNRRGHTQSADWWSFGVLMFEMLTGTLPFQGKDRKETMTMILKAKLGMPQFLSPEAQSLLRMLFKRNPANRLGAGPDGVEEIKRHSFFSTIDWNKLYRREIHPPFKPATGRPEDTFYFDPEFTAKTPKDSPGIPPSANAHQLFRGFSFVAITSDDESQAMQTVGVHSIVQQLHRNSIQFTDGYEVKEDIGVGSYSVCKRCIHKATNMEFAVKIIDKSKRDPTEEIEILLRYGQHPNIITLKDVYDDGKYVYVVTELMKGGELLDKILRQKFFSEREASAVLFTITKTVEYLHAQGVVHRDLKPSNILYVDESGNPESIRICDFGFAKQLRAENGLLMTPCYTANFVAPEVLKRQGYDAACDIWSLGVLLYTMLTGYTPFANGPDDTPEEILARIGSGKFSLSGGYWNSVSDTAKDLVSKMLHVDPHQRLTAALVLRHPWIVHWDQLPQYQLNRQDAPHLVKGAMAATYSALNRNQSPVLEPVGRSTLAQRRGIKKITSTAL

[6] = test system: Serine/threonine-protein kinase B-raf (Homo sapiens), P15056 [V600E]; assay: Binding affinity to human partial length BRAF V600E mutant (S429 to E741 residues) expressed in mammalian expression system assessed as residual binding level at 10 uM by Kinomescan method relative to control
Sequence of Serine/threonine-protein kinase B-raf (Homo sapiens), P15056 [V600E] (P15056 whole entry V600E, the tested form may be a part): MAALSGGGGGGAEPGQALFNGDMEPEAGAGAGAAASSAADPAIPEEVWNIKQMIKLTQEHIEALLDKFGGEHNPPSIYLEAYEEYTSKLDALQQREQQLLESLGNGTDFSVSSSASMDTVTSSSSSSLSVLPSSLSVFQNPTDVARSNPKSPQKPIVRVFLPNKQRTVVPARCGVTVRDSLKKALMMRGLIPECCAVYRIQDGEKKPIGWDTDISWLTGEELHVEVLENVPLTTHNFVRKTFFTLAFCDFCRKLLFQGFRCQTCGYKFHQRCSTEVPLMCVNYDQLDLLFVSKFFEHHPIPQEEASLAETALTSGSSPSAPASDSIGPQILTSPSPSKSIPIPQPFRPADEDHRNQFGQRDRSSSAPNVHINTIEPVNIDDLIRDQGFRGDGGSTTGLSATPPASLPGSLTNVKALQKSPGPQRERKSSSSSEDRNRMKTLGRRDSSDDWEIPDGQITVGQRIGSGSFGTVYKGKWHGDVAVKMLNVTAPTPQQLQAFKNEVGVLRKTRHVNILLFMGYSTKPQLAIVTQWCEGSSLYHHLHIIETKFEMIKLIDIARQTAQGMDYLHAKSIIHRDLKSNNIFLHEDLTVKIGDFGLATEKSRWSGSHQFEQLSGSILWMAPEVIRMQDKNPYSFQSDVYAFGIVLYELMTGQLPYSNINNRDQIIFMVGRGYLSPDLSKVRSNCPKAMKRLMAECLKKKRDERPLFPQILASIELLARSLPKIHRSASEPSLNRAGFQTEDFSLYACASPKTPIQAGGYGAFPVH

[7] = molecular target: Angiopoietin-1 receptor (Homo sapiens) (UniProt Q02763); assay: Binding affinity to wild-type human partial length TIE2 (N804 to T1112 residues) expressed in bacterial expression system assessed as residual binding level at 10 uM by Kinomescan method relative to control
[8] = molecular target: Atypical kinase COQ8B, mitochondrial (Homo sapiens) (UniProt Q96D53); assay: Binding affinity to wild-type human full length ADCK4 (M1 to S544 residues) expressed in bacterial expression system assessed as residual binding level at 10 uM by Kinomescan method relative to control
[9] = molecular target: Microtubule-associated serine/threonine-protein kinase 1 (Homo sapiens) (UniProt Q9Y2H9); assay: Binding affinity to wild-type human partial length MAST1 (S346 to V730 residues) expressed in mammalian expression system assessed as residual binding level at 10 uM by Kinomescan method relative to control
[10] = molecular target: Receptor-type tyrosine-protein kinase FLT3 (Homo sapiens) (UniProt P36888); assay: Binding affinity to wild-type human partial length autoinhibited FLT3 (H564 to Y969 residues) expressed in mammalian expression system assessed as residual binding level at 10 uM by Kinomescan method relative to control
[11] = molecular target: NUAK family SNF1-like kinase 1 (Homo sapiens) (UniProt O60285); assay: Binding affinity to wild-type human partial length ARK5 (E25 to I332 residues) expressed in bacterial expression system assessed as residual binding level at 10 uM by Kinomescan method relative to control
[12] = molecular target: Aurora kinase C (Homo sapiens) (UniProt Q9UQB9); assay: Binding affinity to wild-type human full length AURKC (M1 to S275 residues) expressed in bacterial expression system assessed as residual binding level at 10 uM by Kinomescan method relative to control
Sequence of Aurora kinase C (Homo sapiens) (Q9UQB9 whole entry, the tested form may be a part): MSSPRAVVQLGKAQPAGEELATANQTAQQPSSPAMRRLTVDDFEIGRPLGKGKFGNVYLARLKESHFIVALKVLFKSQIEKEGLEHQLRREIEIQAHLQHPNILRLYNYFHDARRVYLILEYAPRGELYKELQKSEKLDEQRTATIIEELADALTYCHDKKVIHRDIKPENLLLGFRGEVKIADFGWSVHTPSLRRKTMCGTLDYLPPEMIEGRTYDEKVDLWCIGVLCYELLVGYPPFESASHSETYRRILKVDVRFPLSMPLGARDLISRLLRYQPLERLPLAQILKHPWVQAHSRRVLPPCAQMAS

[13] = molecular target: Phosphatidylinositol 5-phosphate 4-kinase type-2 gamma (Homo sapiens) (UniProt Q8TBX8); assay: Binding affinity to wild-type human partial length PIP5K2C (M1 to A421 residues) expressed in mammalian expression system assessed as residual binding level at 10 uM by Kinomescan method relative to control
[14] = molecular target: Mitogen-activated protein kinase 7 (Homo sapiens) (UniProt Q13164); assay: Binding affinity to wild-type human partial length ERK5 (M1 to A409 residues) expressed in bacterial expression system assessed as residual binding level at 10 uM by Kinomescan method relative to control
[15] = molecular target: Ephrin type-A receptor 4 (Homo sapiens) (UniProt P54764); assay: Binding affinity to wild-type human partial length EPHA4 (T601 to R897 residues) expressed in bacterial expression system assessed as residual binding level at 10 uM by Kinomescan method relative to control
Sequence of Ephrin type-A receptor 4 (Homo sapiens) (P54764 whole entry, the tested form may be a part): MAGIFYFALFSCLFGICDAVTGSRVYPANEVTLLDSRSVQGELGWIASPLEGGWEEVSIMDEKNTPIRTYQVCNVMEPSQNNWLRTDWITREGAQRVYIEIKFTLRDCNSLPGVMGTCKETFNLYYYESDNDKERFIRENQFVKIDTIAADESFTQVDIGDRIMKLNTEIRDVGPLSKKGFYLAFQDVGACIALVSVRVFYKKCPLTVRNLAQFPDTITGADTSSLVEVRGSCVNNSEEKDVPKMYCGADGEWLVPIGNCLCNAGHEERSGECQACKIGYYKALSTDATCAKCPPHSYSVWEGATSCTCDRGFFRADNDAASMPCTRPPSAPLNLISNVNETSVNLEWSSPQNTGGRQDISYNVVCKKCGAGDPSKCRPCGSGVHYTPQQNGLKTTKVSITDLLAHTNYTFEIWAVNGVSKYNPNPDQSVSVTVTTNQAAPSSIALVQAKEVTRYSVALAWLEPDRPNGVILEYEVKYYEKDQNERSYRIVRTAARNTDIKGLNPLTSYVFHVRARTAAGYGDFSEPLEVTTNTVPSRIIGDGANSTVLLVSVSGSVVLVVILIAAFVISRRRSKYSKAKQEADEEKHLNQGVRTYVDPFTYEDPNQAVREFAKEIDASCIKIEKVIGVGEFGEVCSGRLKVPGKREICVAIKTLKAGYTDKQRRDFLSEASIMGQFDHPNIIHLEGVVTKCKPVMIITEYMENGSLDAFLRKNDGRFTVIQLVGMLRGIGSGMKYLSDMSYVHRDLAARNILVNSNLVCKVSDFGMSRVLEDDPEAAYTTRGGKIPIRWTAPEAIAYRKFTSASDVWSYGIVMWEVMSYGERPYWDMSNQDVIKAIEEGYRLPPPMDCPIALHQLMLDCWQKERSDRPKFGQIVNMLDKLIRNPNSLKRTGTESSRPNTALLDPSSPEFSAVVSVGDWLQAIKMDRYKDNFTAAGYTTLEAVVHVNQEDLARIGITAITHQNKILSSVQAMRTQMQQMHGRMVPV

[16] = molecular target: Calcium/calmodulin-dependent protein kinase type 1 (Homo sapiens) (UniProt Q14012); assay: Binding affinity to wild-type human full length CAMK1 (M1 to L370 residues) expressed in bacterial expression system assessed as residual binding level at 10 uM by Kinomescan method relative to control
Sequence of Calcium/calmodulin-dependent protein kinase type 1 (Homo sapiens) (Q14012 whole entry, looked up, the tested form may be a part): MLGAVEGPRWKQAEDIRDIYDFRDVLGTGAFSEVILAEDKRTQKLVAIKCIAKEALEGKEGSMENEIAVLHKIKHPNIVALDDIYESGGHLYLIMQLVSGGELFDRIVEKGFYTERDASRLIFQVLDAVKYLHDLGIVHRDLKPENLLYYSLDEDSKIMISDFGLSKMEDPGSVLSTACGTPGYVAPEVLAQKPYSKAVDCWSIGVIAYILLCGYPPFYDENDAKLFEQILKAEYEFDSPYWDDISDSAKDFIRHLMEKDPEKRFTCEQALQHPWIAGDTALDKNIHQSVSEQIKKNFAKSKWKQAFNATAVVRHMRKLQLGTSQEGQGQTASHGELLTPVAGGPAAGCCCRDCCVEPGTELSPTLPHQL

[17] = molecular target: Tyrosine-protein kinase JAK1 (Homo sapiens) (UniProt P23458); assay: Binding affinity to wild-type human partial length JAK1 JH1 catalytic domain (V856 to K1154 residues) expressed in bacterial expression system assessed as residual binding level at 10 uM by Kinomescan method relative to control
[18] = molecular target: Ephrin type-B receptor 4 (Homo sapiens) (UniProt P54760); assay: Binding affinity to wild-type human partial length EPHB4 (H585 to G892 residues) expressed in bacterial expression system assessed as residual binding level at 10 uM by Kinomescan method relative to control
[19] = test system: Epidermal growth factor receptor (Homo sapiens), P00533 [UNDEFINED MUTATION]; assay: Binding affinity to human partial length EGFR S752-I759del mutant expressed in bacterial expression system assessed as residual binding level at 10 uM by Kinomescan method relative to control
Sequence of Epidermal growth factor receptor (Homo sapiens), P00533 [UNDEFINED MUTATION] (P00533 whole entry, looked up, stated change not applied, the tested form may be a part): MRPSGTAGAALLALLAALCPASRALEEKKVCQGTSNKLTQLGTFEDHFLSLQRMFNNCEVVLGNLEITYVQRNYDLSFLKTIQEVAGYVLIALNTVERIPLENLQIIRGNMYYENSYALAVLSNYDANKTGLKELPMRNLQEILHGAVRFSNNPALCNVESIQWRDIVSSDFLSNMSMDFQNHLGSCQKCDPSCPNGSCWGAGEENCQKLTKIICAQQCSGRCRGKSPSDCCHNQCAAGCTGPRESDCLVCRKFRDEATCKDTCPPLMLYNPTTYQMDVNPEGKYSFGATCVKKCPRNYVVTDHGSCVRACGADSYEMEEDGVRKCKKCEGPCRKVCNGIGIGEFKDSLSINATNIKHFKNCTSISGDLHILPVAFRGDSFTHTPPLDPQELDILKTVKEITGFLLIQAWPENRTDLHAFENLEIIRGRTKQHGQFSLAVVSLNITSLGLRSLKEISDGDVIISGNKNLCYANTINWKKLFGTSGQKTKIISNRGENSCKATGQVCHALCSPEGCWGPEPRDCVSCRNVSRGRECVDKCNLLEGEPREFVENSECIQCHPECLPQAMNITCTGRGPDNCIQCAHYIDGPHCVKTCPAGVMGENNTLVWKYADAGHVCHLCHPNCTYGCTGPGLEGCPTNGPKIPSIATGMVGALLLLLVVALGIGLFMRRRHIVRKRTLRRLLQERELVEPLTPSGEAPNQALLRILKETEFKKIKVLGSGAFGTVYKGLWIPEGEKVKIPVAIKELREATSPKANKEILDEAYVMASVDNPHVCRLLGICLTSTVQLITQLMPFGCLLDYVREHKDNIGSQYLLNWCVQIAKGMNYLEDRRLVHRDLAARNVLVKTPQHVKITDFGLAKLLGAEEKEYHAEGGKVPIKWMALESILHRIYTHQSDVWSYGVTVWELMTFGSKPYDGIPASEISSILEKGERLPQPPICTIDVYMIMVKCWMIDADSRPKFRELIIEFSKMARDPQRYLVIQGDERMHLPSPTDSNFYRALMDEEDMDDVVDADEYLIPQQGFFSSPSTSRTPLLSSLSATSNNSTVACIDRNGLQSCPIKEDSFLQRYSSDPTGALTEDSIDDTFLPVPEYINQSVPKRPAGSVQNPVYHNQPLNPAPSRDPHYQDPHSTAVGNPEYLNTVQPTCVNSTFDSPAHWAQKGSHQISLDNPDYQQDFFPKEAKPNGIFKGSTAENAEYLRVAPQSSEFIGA

[20] = molecular target: NUAK family SNF1-like kinase 2 (Homo sapiens) (UniProt Q9H093); assay: Binding affinity to wild-type human partial length SNARK (P22 to A333 residues) expressed in mammalian expression system assessed as residual binding level at 10 uM by Kinomescan method relative to control
[21] = molecular target: Serine/threonine-protein kinase Nek6 (Homo sapiens) (UniProt Q9HC98); assay: Binding affinity to wild-type human full length NEK6 (M8 to T313 residues) expressed in bacterial expression system assessed as residual binding level at 10 uM by Kinomescan method relative to control
[22] = test system: Mast/stem cell growth factor receptor Kit (Homo sapiens), P10721 [D816H]; assay: Binding affinity to human partial length KIT D816H mutant (I571 to D952 residues) expressed in mammalian expression system assessed as residual binding level at 10 uM by Kinomescan method relative to control
[23] = molecular target: Serine/threonine-protein kinase 16 (Homo sapiens) (UniProt O75716); assay: Binding affinity to wild-type human partial length STK16 (G11 to I305 residues) expressed in bacterial expression system assessed as residual binding level at 10 uM by Kinomescan method relative to control
[24] = molecular target: Serine/threonine-protein kinase 10 (Homo sapiens) (UniProt O94804); assay: Binding affinity to wild-type human partial length LOK (E16 to V314 residues) expressed in bacterial expression system assessed as residual binding level at 10 uM by Kinomescan method relative to control

CC(C)N1C(=O)C(NCCCN(C)C)=C(c2cn(C)c3ccccc23)C1=O.Cl
Activity [1]: 90% | Activity [2]: 87% | Activity [3]: 94% | Activity [4]: 100% | Activity [5]: 92% | Activity [6]: 88% | Activity [7]: 93% | Activity [8]: 99% | Activity [9]: 87% | Activity [10]: 88% | Activity [11]: 94% | Activity [12]: 92% | Activity [13]: 83% | Activity [14]: 100% | Activity [15]: 100% | Activity [16]: 100% | Activity [17]: 89% | Activity [18]: 100% | Activity [19]: 97% | Activity [20]: 79% | Activity [21]: 100% | Activity [22]: 96% | Activity [23]: 99% | Activity [24]: 88%
